According to US20060040312A1 (priority 1999, published 2006):

Assays:
[1] = tested on: primary cultures of cortex
[2] = tested on: primary cultures of cortex; assay type: cell-based, rat
[3] = tested on: histamine-contracted, isolated Guinea pig tracheal segments
[4] = molecular target: Shaker H4 potassium channel (Drosophila melanogaster, UniProt P08510); conditions: cited from earlier work
F425G Shaker mutation = F425G Shaker mutation (Drosophila melanogaster, UniProt P08510, F425G); conditions: cited from earlier work
Sequence of F425G Shaker mutation (P08510 whole entry F425G): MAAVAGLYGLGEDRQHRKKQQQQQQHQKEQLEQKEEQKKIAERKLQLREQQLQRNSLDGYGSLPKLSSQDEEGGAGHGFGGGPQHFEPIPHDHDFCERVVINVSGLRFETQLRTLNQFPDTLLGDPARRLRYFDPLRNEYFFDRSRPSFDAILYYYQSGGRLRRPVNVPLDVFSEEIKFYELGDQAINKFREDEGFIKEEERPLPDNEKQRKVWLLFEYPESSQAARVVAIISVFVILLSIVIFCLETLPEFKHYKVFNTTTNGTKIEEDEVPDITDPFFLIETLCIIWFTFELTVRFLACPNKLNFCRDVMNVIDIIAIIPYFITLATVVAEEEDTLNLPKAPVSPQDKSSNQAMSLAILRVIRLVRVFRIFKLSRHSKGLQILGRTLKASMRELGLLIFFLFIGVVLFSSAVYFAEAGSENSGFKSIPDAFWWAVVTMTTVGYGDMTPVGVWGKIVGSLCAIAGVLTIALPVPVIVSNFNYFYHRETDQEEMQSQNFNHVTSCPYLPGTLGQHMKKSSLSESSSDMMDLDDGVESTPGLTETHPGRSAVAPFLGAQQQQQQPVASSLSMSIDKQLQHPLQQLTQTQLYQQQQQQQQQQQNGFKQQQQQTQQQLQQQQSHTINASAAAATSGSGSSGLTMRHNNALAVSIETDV

cardiac myocytes = assay type: cell-based, rat
[5] = tested on: primary cortical cultures

Sequence of Shaker H4 potassium channel (P08510 whole entry): as the sequence (P08510 whole entry F425G) above, with G425F counted along it

**Q.** With `Nc1ccncc1` [4-AP, 4-aminopyridine] as the compound, how does the “effect of K+ channel antagonist on the hyperpolarization seen with 100 nM κ-PVIIA” value [1] read?
**A.** without any detectable effect

**Q.** For “Iberiotoxin (QFTDVDCSVSKECWSVCKDLFGVDRGKCMGKKCRCYQ; UniProt P24663 1-37, looked up) [IBTX]”, which “effect of K+ channel antagonist on the hyperpolarization seen with 100 nM κ-PVIIA” value [1] is on record?
**A.** without any detectable effect

**Q.** For `CCCCNC(=O)NS(=O)(=O)c1ccc(C)cc1` [Tolbutamide], which “sensitivity of κ-PVIIA-evoked currents to KATP antagonist” value [2] is on record?
**A.** sensitive

**Q.** What about the “effect of KATP channel antagonist on the κ-PVIIA response” value [3] of the same compound?
**A.** reduce effects of κ-PVIIA

**Q.** And the “effect of KATP antagonist on the κ-PVIIA induced hyperpolarization” value [1]?
**A.** significant reductions

**Q.** What about the “inhibition of the κ-PVIIA (100 nM) response” value [1] of the same compound?
**A.** inhibition

**Q.** What about the “effect of KATP antagonist on κ-PVIIA protection against glutamate cytotoxicity” value (cortical cells) of the same compound?
**A.** blocked

**Q.** With charybdotoxin [reference compound] as the compound, how does the “block / inhibition of the Shaker channel” value [4] read?
**A.** inhibit

**Q.** What about the “effect of F425G Shaker mutation on toxin affinity / sensitivity” value (F425G Shaker mutation) of the same compound?
**A.** increases charybdotoxin affinity by three orders of magnitude

**Q.** With `COc1ccc(Cl)cc1C(=O)NCCc1ccc(S(=O)(=O)NC(=O)NC2CCCCC2)cc1` [Glibenclamide] as the compound, how does the “sensitivity of κ-PVIIA-evoked currents to KATP antagonist” value (cardiac myocytes) read?
**A.** sensitive

**Q.** And the “effect of KATP channel antagonist on the κ-PVIIA response” value [3]?
**A.** reduce effects of κ-PVIIA

**Q.** What about the “effect of KATP antagonist on the κ-PVIIA induced hyperpolarization” value [1] of the same compound?
**A.** significant reductions

**Q.** With Triton [reference compound] as the compound, how does the “increase in fluorescence (Enzchek protease-sensitive dye)” value [5] read?
**A.** ~14%
